According to ChEMBL document CHEMBL5365461, “Degradation of Cyclin-Dependent Kinase 9/Cyclin T1 by Optimized Microtubule-Associated Protein 1 Light Chain 3 Beta-Recruiting Coumarin Analogs” (J Med Chem, 2023):
Active and inactive are the calls of the source. The calls are words filed in the database; no cut-off is given here.

Columns and labels:
[1] = target: Cyclin-dependent kinase 9 (Homo sapiens) (UniProt P50750); assay: Induction of CDK9 55 kDa degradation in human U2932 cells at 500 nM incubated for 12 hrs in presence of BafA1 by immunoblotting analysis; type: cell-based
U2932 [2] = assay: Cytotoxicity against human U2932 cells assessed as inhibition of cell growth measured after 72 hrs by CCK-8 assay; type: functional, cell-based; details: U2932, 72 h
[3] = Cmax in CD-1 mouse at 5 mg/kg, ip measured after 24 hrs by LC-MS/MS analysis; type: ADME, organism-based; set-up: dose 5 mg/kg, time 24 hrs, route ip; details: in vivo
[4] = Observed MRTinfinity in CD-1 mouse at 5 mg/kg, ip measured after 24 hrs by LC-MS/MS analysis; type: ADME, organism-based; details: in vivo
[5] = Half life in CD-1 mouse at 5 mg/kg, ip measured after 24 hrs by LC-MS/MS analysis; type: ADME, organism-based; details: in vivo
HCT-116 = assay: Cytotoxicity against human HCT-116 cells assessed as inhibition of cell growth measured after 72 hrs by CCK-8 assay; type: functional, cell-based
[6] = target: Cyclin-dependent kinase 9 (Homo sapiens) (UniProt P50750); assay: Induction of CDK9 42 kDa degradation in human U2932 cells at 500 nM incubated for 12 hrs in presence of BafA1 by Co-immunoprecipitation analysis; type: cell-based
[7] = target: Cyclin-dependent kinase 9 (Homo sapiens) (UniProt P50750); assay: Induction of CDK9 55 kDa degradation in human U2932 cells at 500 nM incubated for 12 hrs in presence of SNS-032 by immunoblotting analysis; type: cell-based
[8] = target: Cyclin-dependent kinase 9 (Homo sapiens) (UniProt P50750); assay: Induction of CDK9 55 kDa degradation in human U2932 cells by immunoblotting analysis; type: cell-based; details: dose 1-1000 nM
[9] = target: Cyclin-dependent kinase 9 (Homo sapiens) (UniProt P50750); assay: Inhibition of GST-fused human full-length CDK9 (1 to 372(end) residues)/N-terminal GST-fused His-tagged human full-length CyclinT1 (1 to 726(end) residues) expressed in baculovirus expression system at 10 nM using CDK7/9 tide as substrate incubated for 120 mins in presence of ATP by ADP-Glo Kinase assay relative to control
U2932 [10] = assay: Downregulation of c-Myc protein level in human U2932 cells incubated for 6 hrs by RT-qPCR analysis; type: functional, cell-based; details: dose 10-1000 nM
MV4-11 [11] = assay: Downregulation of Mcl-1 protein level in human MV4-11 cells incubated for 6 hrs by RT-qPCR analysis; type: functional, cell-based; details: dose 10-1000 nM
KP-4 = assay: Cytotoxicity against human KP-4 cells assessed as inhibition of cell growth measured after 72 hrs by CCK-8 assay; type: functional, cell-based
[12] = target: Cyclin-dependent kinase 9 (Homo sapiens) (UniProt P50750); assay: Induction of CDK9 55 kDa degradation in human U2932 cells at 500 nM incubated for 12 hrs in presence of 5,7-Dihydroxy-4-methylcoumarin by immunoblotting analysis; type: cell-based
[13] = target: Cyclin-dependent kinase 9 (Homo sapiens) (UniProt P50750); assay: Induction of CDK9 55 kDa degradation in human U2932 cells at 500 nM incubated for 12 hrs in presence of MLN4924 by immunoblotting analysis; type: cell-based
U2932 [14] = assay: Downregulation of RNAP2 phosphorylation at serine 5 residue in human U2932 cells at 10 to 1000 nM incubated for 6 hrs by immunoblotting analysis; type: functional, cell-based; details: dose 10-1000 nM
U2932 [15] = assay: Induction of apoptosis in human U2932 cells assessed as viable cells at 1000 nM incubated for 24 hrs by AnnexinV-FITC/PI staining based flow cytometry analysis (reference value: 86.9%); type: functional; details: read-out: Activity
[16] = target: Cyclin-dependent kinase 9 (Homo sapiens) (UniProt P50750); assay: Induction of CDK9 55 kDa degradation in human U2932 cells at 500 nM incubated for 12 hrs in presence of HCQ by immunoblotting analysis; type: cell-based
[17] = target: Cyclin-dependent kinase 9 (Homo sapiens) (UniProt P50750); assay: Induction of CDK9 42 kDa degradation in human U2932 cells at 500 nM incubated for 12 hrs in presence of MG132 by immunoblotting analysis; type: cell-based
[18] = target: Cyclin-dependent kinase 9 (Homo sapiens) (UniProt P50750); assay: Induction of CDK9 42 kDa degradation in human U2932 cells at 100 nM by immunoblotting analysis; type: cell-based; details: time 1-24 hrs, TDE = time-dependent effect
U2932 [19] = assay: Induction of apoptosis in human U2932 cells assessed as necrotic cells at 1000 nM incubated for 24 hrs by AnnexinV-FITC/PI staining based flow cytometry analysis (reference value: 0.92%); type: functional
[20] = target: Cyclin-dependent kinase 9 (Homo sapiens) (UniProt P50750); assay: Induction of CDK9 42 kDa degradation in human U2932 cells at 500 nM incubated for 12 hrs in presence of 5,7-Dihydroxy-4-methylcoumarin by immunoblotting analysis; type: cell-based
[21] = AUC(0 to t) in CD-1 mouse at 1 mg/kg, iv measured after 24 hrs by LC-MS/MS analysis; type: ADME, organism-based; set-up: time 24 hrs, dose 1 mg/kg, route iv; details: in vivo
U2932 [22] = assay: Induction of apoptosis in human U2932 cells assessed as late apoptotic cells at 1000 nM incubated for 24 hrs by AnnexinV-FITC/PI staining based flow cytometry analysis (reference value: 5.95%); type: functional
[23] = target: Cyclin-dependent kinase 9 (Homo sapiens) (UniProt P50750); assay: Induction of CDK9 42 kDa degradation in human U2932 cells at 500 nM incubated for 12 hrs in presence of MLN4924 by immunoblotting analysis; type: cell-based
U2932 [24] = assay: Induction of apoptosis in human U2932 cells assessed as early apoptotic cells at 1000 nM incubated for 24 hrs by AnnexinV-FITC/PI staining based flow cytometry analysis (reference value: 6.20%); type: functional
[25] = target: Cyclin-dependent kinase 9 (Homo sapiens) (UniProt P50750); assay: Induction of CDK9 55 kDa degradation in human U2932 cells at 500 nM incubated for 12 hrs in presence of MG132 by immunoblotting analysis; type: cell-based
[26] = target: Cyclin-dependent kinase 9 (Homo sapiens) (UniProt P50750); assay: Induction of CDK9 42 kDa degradation in human U2932 cells by immunoblotting analysis; type: cell-based; details: dose 1-1000 nM
[27] = target: Cyclin-dependent kinase 9 (Homo sapiens) (UniProt P50750); assay: Induction of CDK9 degradation in LC3B knockout HEK293T cells at 100 nM incubated for 24 hrs by immunoblotting analysis; type: cell-based
U2932 [28] = assay: Downregulation of Mcl-1 protein level in human U2932 cells incubated for 6 hrs by RT-qPCR analysis; type: functional, cell-based; details: dose 10-1000 nM
[29] = Tmax in CD-1 mouse at 5 mg/kg, ip measured after 24 hrs by LC-MS/MS analysis; type: ADME, organism-based; details: in vivo
[30] = target: Cyclin-dependent kinase 9 (Homo sapiens) (UniProt P50750); assay: Induction of CDK9 42 kDa degradation in human U2932 cells at 500 nM incubated for 12 hrs in presence of BafA1 by immunoblotting analysis; type: cell-based
MV4-11 [31] = assay: Induction of apoptosis in human MV4-11 cells at 1000 nM incubated for 24 hrs by AnnexinV-FITC/PI staining based flow cytometry analysis; type: functional, cell-based
[32] = target: Cyclin-dependent kinase 9 (Homo sapiens) (UniProt P50750); assay: Induction of CDK9 55 kDa degradation in human U2932 cells assessed as maximal efficacy at 1 to 1000 nM by immunoblotting analysis relative to control; type: cell-based; details: dose 1-1000 nM
[33] = target: Cyclin-dependent kinase 9 (Homo sapiens) (UniProt P50750); assay: Induction of CDK9 42 kDa degradation in human U2932 cells at 500 nM incubated for 12 hrs in presence of SNS-032 by immunoblotting analysis; type: cell-based
[34] = Observed clearance in CD-1 mouse at 1 mg/kg, iv measured after 24 hrs by LC-MS/MS analysis; type: ADME, organism-based; details: in vivo
[35] = Observed MRTinfinity in CD-1 mouse at 1 mg/kg, iv measured after 24 hrs by LC-MS/MS analysis; type: ADME, organism-based; details: in vivo
U2932 [36] = assay: Downregulation of RNAP2 phosphorylation at serine 2 residue in human U2932 cells at 10 to 1000 nM incubated for 6 hrs by immunoblotting analysis; type: functional, cell-based; details: dose 10-1000 nM

Chain of Cyclin-dependent kinase 9 (Homo sapiens) (P50750 whole entry, the tested form may be a part): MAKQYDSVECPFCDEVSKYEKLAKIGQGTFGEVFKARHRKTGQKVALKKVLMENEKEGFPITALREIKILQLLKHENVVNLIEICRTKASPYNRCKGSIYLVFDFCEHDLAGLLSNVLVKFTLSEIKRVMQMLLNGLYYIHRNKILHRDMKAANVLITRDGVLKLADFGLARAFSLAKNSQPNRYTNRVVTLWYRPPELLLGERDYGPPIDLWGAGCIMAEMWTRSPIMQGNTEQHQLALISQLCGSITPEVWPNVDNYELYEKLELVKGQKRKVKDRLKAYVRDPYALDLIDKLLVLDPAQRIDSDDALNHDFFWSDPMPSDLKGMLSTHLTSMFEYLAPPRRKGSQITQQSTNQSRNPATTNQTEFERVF

| SMILES | Activity [1] | IC50 (U2932 [2]) [nM] | Cmax [3] [ng/mL] | MRT inf [4] [h] | half-life [5] [h] | Activity (HCT-116) | Activity [6] | Activity [7] | Activity [8] | inhibition [9] [%] | Activity (U2932 [10]) | Activity (MV4-11 [11]) | Activity (KP-4) | Activity [12] | Activity [13] | Activity (U2932 [14]) | viability at 1 µM (U2932 [15]) [%] | Activity [16] | Activity [17] | Activity [18] | other results |
| --- | --- | --- | --- | --- | --- | --- | --- | --- | --- | --- | --- | --- | --- | --- | --- | --- | --- | --- | --- | --- | --- |
| Cc1cc(=O)oc2cc(O)cc(OCCCCCN3CCC(C(=O)Nc4ncc(SCc5ncc(C(C)(C)C)o5)s4)CC3)c12 | inactive | 45 | 88.4 | 4.17 | 4.66 | Active | Active | inactive | Dose-Dependent Effect | 1 | Active | Dose-Dependent Effect | Active | inactive | Active | inactive | 41.8 | inactive | Active | Tde | Activity (U2932 [19]): 2.12%; Activity [20]: inactive; AUC(0-t) at 24 h [21]: 72.3 ng·h/mL; Activity (U2932 [22]): 40.9%; Activity [23]: Active; Activity (U2932 [24]): 15.2%; Activity [25]: Active; Activity [26]: Dose-Dependent Effect; Activity [27]: inactive; Activity (U2932 [28]): Active; Tmax [29]: 0.25 h; Activity [30]: inactive; Activity (MV4-11 [31]): Active; Emax [32]: 54.8%; Activity [33]: inactive; clearance [34]: 229 mL/min/kg; MRT inf [35]: 0.79 h; Activity (U2932 [36]): Active |
| Cc1cc(=O)oc2cc(OCCCN3CCC(C(=O)Nc4ncc(SCc5ncc(C(C)(C)C)o5)s4)CC3)cc(O)c12 | inactive | 45 | 88.6 | 3.84 | 3.61 | Active | Active | inactive | Dose-Dependent Effect | 1 | Active | Dose-Dependent Effect | Active | inactive | Active | inactive | 47.4 | inactive | Active | Tde | Activity (U2932 [19]): 2.08%; Activity [20]: inactive; AUC(0-t) at 24 h [21]: 116 ng·h/mL; Activity (U2932 [22]): 38.7%; Activity [23]: Active; Activity (U2932 [24]): 11.8%; Activity [25]: Active; Activity [26]: Dose-Dependent Effect; Activity [27]: inactive; Activity (U2932 [28]): Active; Tmax [29]: 0.25 h; Activity [30]: inactive; Activity (MV4-11 [31]): Active; Emax [32]: 46%; Activity [33]: inactive; clearance [34]: 140 mL/min/kg; MRT inf [35]: 0.674 h; Activity (U2932 [36]): Active |
